What was measured:
DuPro = assay: Antitumor activity against human DuPro cells; format: functional, cell-based
DU-145 = assay: Antitumor activity against human DU145 cells; format: functional, cell-based
LNCaP = assay: Antitumor activity against human LNCAP cells; format: functional, cell-based
PC-3 = assay: cells; conditions: Homo sapiens
Description: Antitumor activity against human PC3 cells

[1] = biological target: T1, Histone deacetylase (Homo sapiens) (UniProt Q13547+O15379+Q9UBN7+Q92769+Q9UQL6+Q8WUI4+Q9BY41+Q96DB2+P56524+Q9UKV0+Q969S8); assay: Inhibition of HDAC from human HeLa cells assessed as fold induction of alpha tubulin acetylation; format: cell-based
MDA-MB-468 = assay: Antitumor activity against human MDA-MB-468 cells; format: functional, cell-based
ZR-75-1 = assay: Antitumor activity against human ZR-75-1 cells; format: functional, cell-based
[2] = Antitumor activity against human Hs 578T cells; format: functional, cell-based
T47D = assay: Antitumor activity against human T47D cells; format: functional, cell-based
NCI-H157 = assay: Antitumor activity against human NCI-H157 cells by MTT assay; format: functional, cell-based
MCF7 = assay: cells; format: functional, cell-based; conditions: Homo sapiens
Description: Antitumor activity against human MCF7 cells

Enterocytozoon bieneusi = assay: Antimicrobial activity against Enterocytozoon bieneusi; format: functional, organism-based
MDA-MB-435 = assay: Antitumor activity against human MDA-MB-435 cells; format: functional, cell-based
Malme-3M = assay: Antitumor activity against human MALME-3M cells; format: functional, cell-based
MCF-10A = assay: cells; format: functional, cell-based; conditions: Homo sapiens
Description: Antitumor activity against human MCF10A cells

[3] = biological target: T1, Histone deacetylase (Homo sapiens); conditions: HeLa, at 5 µM
Description: Inhibition of HDAC from human HeLa cells assessed as of histone H3 acetylation at 5 uM

HT-29 = assay: Antitumor activity against human HT-29 cells; format: functional, cell-based
A549 = assay: Antitumor activity against human A549 cells; format: functional, cell-based
[4] = Antitumor activity against human U251MG cells; format: functional, cell-based; conditions: U-251
cells = conditions: Mus musculus, ML1
Description: Antitumor activity against mouse ML1 cells

[5] = biological target: T1, Histone deacetylase (Homo sapiens); assay: Inhibition of HDAC from human HeLa cells assessed as induction of histone H3 acetylation at 1 uM; format: cell-based
[6] = biological target: Lysine-specific histone demethylase 1A (Homo sapiens) (UniProt O60341); conditions: 1 uM
Description: Inhibition of LSD1 at 1 uM

RKO [7] = assay: Induction of SFRP5 expression in human RKO cells at 1 uM; format: functional
RKO [8] = assay: Induction of H3K4me2 expression in human RKO cells at 1 uM; format: functional
RKO [9] = assay: Induction of SFRP4 expression in human RKO cells at 1 uM; format: functional
L1210 = assay: Antitumor activity against mouse L1210 cells; format: functional, cell-based

With `CCNC/C=C\CNCCCCNCCCCNC/C=C\CNCC` the IC50 (DuPro) was 140 nM, the IC50 (DU-145) was 140 nM and the IC50 (LNCaP) was 140 nM. It also gave an IC50 (PC-3) of 140 nM.

`CC(C)(C)c1ccc(CNCCCCNCCCNC(=O)CCCCCC(=O)NO)cc1` gave a fold change (FC) [1] of 253.

In the case of `CCNCCCNCCCNCCCNCC1CC1`, the IC50 (MDA-MB-468) is reported as 200 nM, the IC50 (ZR-75-1) is reported as 200 nM and the IC50 [2] is reported as 200 nM. It also gave an IC50 (T47D) of 200 nM, an IC50 (NCI-H157) of 200 nM and an IC50 (MCF7) of 200 nM.

`CCNCCCCNC[C@H]1C[C@@H]1CNCCCCNC[C@H]1C[C@@H]1CNCCCCNCC` gave an IC50 (DuPro) of 120 nM and an IC50 (DU-145) of 120 nM.

Work on `CCNCCCCNCCCCNCCCCNC/C=C/CNCCCCNCCCCNCCCCNCC` yielded an IC50 (DuPro) of 130 nM, an IC50 (DU-145) of 130 nM and an IC50 (Enterocytozoon bieneusi) of 130 nM. For the same compound, the IC50 (LNCaP) was 130 nM, the IC50 (PC-3) was 130 nM and the IC50 (MDA-MB-435) was 130 nM.

`CC(C)NCCCNCCCCNCCCNC(C)C` gave an IC50 (Malme-3M) of 3000 nM.

`CC(=O)C(=O)NCCCCCC(=O)NCCCNCCCCNCCC(c1ccccc1)c1ccccc1` showed an IC50 (MCF-10A) greater than 30000 nM, an inhibition [3] of 30.2% and an IC50 (MCF7) greater than 30000 nM.

`CCNCCCNCc1ccccc1CNCCCNCC` gave an IC50 (DU-145) greater than 30000 nM, an IC50 (HT-29) greater than 30000 nM and an IC50 (A549) greater than 30000 nM. It also gave an IC50 (PC-3) greater than 30000 nM, an IC50 (MCF7) greater than 30000 nM and an IC50 [4] greater than 30000 nM.

`CCNCCCCNCCCCNCCCCNCC` [DIETHYLHOMOSPERMINE] showed an IC50 (Malme-3M) of 1000 nM.

With `c1ccc(-c2ccccc2CNCCCNCCCNCCCNCc2ccccc2-c2ccccc2)cc1` the IC50 (NCI-H157) was 4200 nM.

`CCNCCCNCC1CCC1CNCCCNCC` (configuration not stated) showed an IC50 (DU-145) of no less than 100 nM, an IC50 (HT-29) of no less than 100 nM and an IC50 (A549) of no less than 100 nM. For the same compound, the IC50 (PC-3) was no less than 100 nM, the IC50 (MCF7) was no less than 100 nM and the IC50 [4] was no less than 100 nM.

Work on `Nc1ccccc1NC(=O)c1ccc(CNC(=O)CCCCCCCC(=O)NCCCNCCCCNCCC(c2ccccc2)c2ccccc2)cc1` yielded an IC50 (MCF-10A) greater than 30000 nM, an inhibition [3] of 47% and an IC50 (MCF7) greater than 30000 nM.

In the case of `O=C(CCCCCCC(=O)NCCCNCCCCNCCC(c1ccccc1)c1ccccc1)NO`, the IC50 (cells) is reported as 10000 nM and the inhibition [5] is reported as 75%.

With `CCNCCCNCCCNCCCNCC(CC)CC` the IC50 (NCI-H157) was 800 nM.

Compound `CCNCCCNCCCCNCCCNCC(CC)CC` has an IC50 (NCI-H157) of 3100 nM.

`c1ccc(C(CCNCCCNCCCNCCCNCCC(c2ccccc2)c2ccccc2)c2ccccc2)cc1` showed an IC50 (NCI-H157) of 4100 nM.

Compound `Nc1ccccc1NC(=O)c1ccc(CNC(=O)CCCCCCC(=O)NCCCNCCCCNCCC(c2ccccc2)c2ccccc2)cc1` has an IC50 (MCF-10A) greater than 30000 nM and an IC50 (MCF7) greater than 30000 nM.

With `N=C(NCCCNCCCCCCCNCCCNC(=N)NC(=N)NCCC(c1ccccc1)c1ccccc1)NC(=N)NCCC(c1ccccc1)c1ccccc1` the inhibition [6] was 90.9%, the Activity (RKO [7]) was 20% and the Activity (RKO [8]) was 20%. The Activity (RKO [9]) was 20%.

`CCNCCCNCC1CC1CNCCCNCC` (configuration not stated) gave an IC50 (DU-145) of no less than 300 nM, an IC50 (HT-29) of no less than 300 nM and an IC50 (A549) of no less than 300 nM. For the same compound, the IC50 (PC-3) was no less than 300 nM, the IC50 (MCF7) was no less than 300 nM and the IC50 [4] was no less than 300 nM.

In the case of `CCNCCCNCCCNCCCNCCSc1ccccc1`, the IC50 (NCI-H157) is reported as 300 nM.

`CCNCCCNCCCCNCCCNCC` [BIS(ETHYL)SPERMINE] gave an IC50 (L1210) of 500 nM.

For `CCNCCCNC/C=C\CNCCCNCC`, the IC50 (DU-145) was 250 nM, the IC50 (HT-29) was 250 nM and the IC50 (A549) was 250 nM. It also gave an IC50 (PC-3) of 250 nM, an IC50 (MCF7) of 9250 nM and an IC50 [4] of 250 nM.

Compound `CC1(C)C2CCC(CNCCCNCCCNCCCNCC3CCC4CCC3C4(C)C)C1CC2` (configuration not stated) has an IC50 (NCI-H157) of 2800 nM.

`c1ccc(C(CCNCCCCNCCCNCCC(c2ccccc2)c2ccccc2)c2ccccc2)cc1` gave an IC50 (NCI-H157) of 4600 nM.

For `CCNCCCNCCCCNCCCNCCC(C)C`, the IC50 (NCI-H157) was 1700 nM.

Work on `CCNC[C@H]1C[C@@H]1CNCCCCNC[C@H]1C[C@@H]1CNCC` yielded an IC50 (DuPro) of 60 nM and an IC50 (DU-145) of 60 nM.

Work on `Nc1ccccc1NC(=O)c1ccc(CNC(=O)OCc2cccnc2)cc1` [ENTINOSTAT] yielded an IC50 (cells) of 750 nM.

`CC(C)c1ccc(CNCCCNCCCNCCCNCc2ccc(C(C)C)cc2)cc1` showed an IC50 (NCI-H157) of 4100 nM.

`FC(F)(F)Sc1ccc(CNCCCNCCCNCCCNCc2ccc(SC(F)(F)F)cc2)cc1` gave an IC50 (NCI-H157) of 3600 nM.

With `CCNCCCCNCCCCNCCCCNCCCCNC/C=C/CNCCCCNCCCCNCCCCNCCCCNCC` the IC50 (DuPro) was 90 nM, the IC50 (DU-145) was 90 nM and the IC50 (LNCaP) was 90 nM. It also gave an IC50 (PC-3) of 90 nM.

For `CCSCCNCCCNCCCNCCCNCCSCC`, the IC50 (NCI-H157) was 1400 nM.

`Cc1cccc(NC(=O)c2ccc(CNC(=O)CCCCCCC(=O)NCCCNCCCCNCCC(c3ccccc3)c3ccccc3)cc2)c1` gave an IC50 (MCF-10A) greater than 30000 nM, an inhibition [3] of 42.6% and an IC50 (MCF7) greater than 30000 nM.

In the case of `c1ccc(-c2ccccc2CNCCCNCCCCNCCCNCc2ccccc2-c2ccccc2)cc1`, the IC50 (NCI-H157) is reported as 4100 nM.
